Laboratory results: patent US20240415878A1, “Compositions and Methods for Modulating Mitochondrial Function” (Board of Regents, The University of Texas System, priority 2021, published 2024)

Legend:
[1] = system: HIF-1α; conditions: cell culture
From the text: HIF-1α is stabilized in Mrs2−/− mice. To examine the intrinsic role of Mrs2, Mrs2^−/− mice were challenged to LPS-induced inflammatory response. It was noticed that there was a barely detectable HIF-1α stabilization in control but a significant HIF-1α protein accumulation following LPS stimulation in Mrs2^−/− hepatocytes (Daw et al., 2020). […] It was envisioned that loss of Mrs2 in hepatocyte mitochondria might control metabolite fluxes that regulates HIF-1α stability under normoxic conditions. HIF-1α is the most commonly studied transcription factor that responds to oxygen tension and its stabilization controls numerous metabolic cascades, including glycolysis and oxidative phosphorylation (Kaelin and Ratcliffe, 2008; Lum et al., 2007; Semenza, 2013). A targeted metabolite screen was conducted to identify whether these metabolites potentially altered in Mrs2^−/− control HIF-1α stabilization. WT hepatocytes were treated with the PHD inhibitor FG-4952 for 6 hours in the presence or absence of metabolites (Buckley et al., 2012). […] Next it was explored whether citric acid mediated HIF-1α destabilization is a hydroxylation dependent mechanism by reconstitution of hydroxylation-dead mutant HIF-1α in COS-7 cells (Yan et al., 2007). […] Next tested the potency of citric acid and sodium citrate was tested. Hepatocytes isolated from WT or Mrs2^−/− mice were treated for 6 hours. HIF-1α stabilization was less affected by di- or tri-sodium citrate than by citric acid (FIG. 9G). […] The citric acid-mediated HIF-1α destabilization was intact in multiple chemical modalities (FIG. 9H) and the intracellular chelation of Mg^2+ ions suppressed FG-4952-induced HIF-1α stabilization (FIG. 9I). […] Furthermore, COS-7 cells were more sensitive to the HIF-1α stabilizing effect compared to hepatocytes. […] Next HIF-1α abundance was tested in liver tissues harvested from dietary cohorts. HIF-1α protein expression/stabilization was prominent in both Mrs2^−/− and Mrs2^−/− WD, whereas HIF-1α protein was nearly completely absent in WT WD (FIG. 9M). This supports the elevation of HIF-1α protein level as a key mechanism driving transcription changes in Mrs2^−/− WD livers.
Immunoblotting. Crushed tissues were homogenized in lysis buffer (ThermoFisher) on ice for one minute (20-30 strokes) using an automatic Dounce homogenizer set to 2000 RPM. Whole cell lysate was prepared in lysis buffer (Abcam) using 3 sets of 3-second sonication (power level 3) intervals on ice. Protein concentration was estimated using Pierce BCA assay kit and samples were prepared and heated for 90° C. for 5 minutes. Equal amounts of protein were loaded and separated on 4%-12% Bis-Tris polyacrylamide gel (Thermo Fisher Scientific), transferred to a PVDF membrane, blocked for 1-2 h using 5% fat free skim milk, washed and finally, probed with corresponding antibodies as specified below. Antibodies were from Cell Signaling Technology (HIF-1α and Hydroxy HIF-1α dilution 1:3000, MCU dilution 1.5000, MICU1 dilution 1:3000), Abcam Abcam (CPT-1a, CPT-2, OXPHOS cocktail dilution 1:3000), ZYMED Laboratories (β-actin; dilution 1:1,000), and Amersham (secondary antibodies conjugated with peroxidase). Development was done using X-ray film using a series of timed exposures and Image J was used for densitometric analysis on scanned film images.

[2] = target: Bacterial CorA (Salmonella typhimurium, UniProt P0A2R8); conditions: Kucharski et al., 2000, read-out: IC50 for CorA inhibition; cited from earlier work
Bacterial CorA, sequence (P0A2R8 whole entry): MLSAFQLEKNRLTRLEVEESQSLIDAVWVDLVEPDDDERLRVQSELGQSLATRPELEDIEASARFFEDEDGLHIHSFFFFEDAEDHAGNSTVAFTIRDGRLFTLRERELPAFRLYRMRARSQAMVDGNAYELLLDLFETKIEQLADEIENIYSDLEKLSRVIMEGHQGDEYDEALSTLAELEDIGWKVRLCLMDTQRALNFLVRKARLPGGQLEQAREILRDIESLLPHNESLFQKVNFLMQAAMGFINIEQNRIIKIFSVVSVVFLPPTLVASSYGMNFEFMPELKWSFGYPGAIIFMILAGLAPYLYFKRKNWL

[3] = system: WT hepatocytes; assay: Confocal BODIPY/TMRE imaging of lipid droplets and mitochondrial potential in hepatocytes; assay type: cell-based, murine; conditions: 50 μM, 48 hours
Method: CPACC treatment enhances adipose browning and lowers whole body weight. Given the potent mMg^2+ uptake inhibiting properties and low toxicity of CPACC, we hypothesized that CPACC could mimic Mrs2^−/− cellular phenotype. WT hepatocytes isolated from over 12 months old mice were treated with 50 μM CPACC for 48 hours. Control and CPACC treated hepatocytes were stained with BODIPY and TMRE for intracellular tracing using confocal imaging. […] Next it was determined if CPACC treatment affects the mitochondrial oxygen consumption rate. Freshly isolated WT hepatocytes were treated with 5-25 μM concentrations of CPACC for 16 hours before measurement of oxygen consumption rate. […] Since it was observed an enhancement of basal OCR in CPACC treated hepatocytes, the extracellular acidification rate was measured in control and CPACC treated hepatocytes and found it to be higher in the CPACC condition indicating higher glycolytic activity (FIG. 11G). […]
Confocal microscopic examination of cellular lipid localization and maintenance. […] Leica Application Suite X was used to quantify lipid-mitochondrial colocalization using line scan analysis followed by smooth curve fitting. […] The lipid droplet sizes and mitochondrial membrane potential were quantified using both Leica Application Suite X and ImageJ. All data was analyzed using GraphPad Prism v8.

In the case of `[NH2][Co]([NH2])([NH2])([NH2])([NH2])[Cl]` [CPACC, chloropentaammine cobalt (III) chloride], the “HIF-1α stabilization by the compound” value [1] is listed as “partial stabilization”, the IC50 [2] is listed as roughly 100 µM and the “effect on mitochondrial function (TMRE)” value [3] is listed as “no negative effect”. The lipid droplet size ([3]; hepatocytes from over 12 months old mice) was “marked reduction of lipid droplet size”.
